These compounds were tested against MOZ-KAT6A (Homo sapiens, UniProt Q92794, A567V) (assay: Acetyltransferase biochemical assay (AlphaScreen), KAT6A).
MOZ-KAT6A, sequence (Q92794 with tags, fused parts or gaps A567V): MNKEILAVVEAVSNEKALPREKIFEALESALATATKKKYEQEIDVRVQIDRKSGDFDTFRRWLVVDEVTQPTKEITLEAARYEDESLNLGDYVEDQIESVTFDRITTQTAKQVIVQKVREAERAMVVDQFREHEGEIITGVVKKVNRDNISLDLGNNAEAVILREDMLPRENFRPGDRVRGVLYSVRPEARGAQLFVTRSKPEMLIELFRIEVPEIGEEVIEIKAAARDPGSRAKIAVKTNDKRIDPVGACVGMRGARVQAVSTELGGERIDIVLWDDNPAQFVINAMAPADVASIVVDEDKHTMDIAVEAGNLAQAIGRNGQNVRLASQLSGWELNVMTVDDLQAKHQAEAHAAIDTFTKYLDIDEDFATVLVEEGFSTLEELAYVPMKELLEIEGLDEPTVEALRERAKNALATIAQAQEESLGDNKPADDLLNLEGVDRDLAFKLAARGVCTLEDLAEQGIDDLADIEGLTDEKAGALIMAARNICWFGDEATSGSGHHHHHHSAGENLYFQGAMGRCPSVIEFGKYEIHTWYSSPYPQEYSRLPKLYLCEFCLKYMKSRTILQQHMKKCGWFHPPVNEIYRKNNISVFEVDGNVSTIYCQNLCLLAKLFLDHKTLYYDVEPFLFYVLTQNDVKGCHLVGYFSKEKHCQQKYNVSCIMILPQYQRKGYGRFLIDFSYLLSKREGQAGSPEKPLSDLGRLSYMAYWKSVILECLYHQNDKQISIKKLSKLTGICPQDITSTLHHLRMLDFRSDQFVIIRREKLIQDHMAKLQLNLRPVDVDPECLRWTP

SMILES	IC50 [µM]
O=S(=O)(Nc1noc2cccc(Cl)c12)c1ccc(OC(F)F)cc1 [Example 34, N-(4-chlorobenzo [d]isoxazol-3-yl)-4-(difluoromethoxy) benzenesulfonamide]	> 125
O=S(=O)(Nc1noc2cccc(Cl)c12)c1ccc(S(F)(F)(F)(F)F)cc1 [Example 35, N-(4-chlorobenzo [d]isoxazol-3-yl)-4-(pentafluoro-λ^6-sulfanyl)benzene sulfonamide]	4.63
O=S(=O)(Nc1noc2cccc(Cl)c12)c1cccc(S(F)(F)(F)(F)F)c1 [Example 36, N-(4-chlorobenzo [d]isoxazol-3-yl)-3-(pentafluoro-λ^6-sulfanyl)benzene sulfonamide]	17.7
COc1cc(C)c(C(C)C)cc1S(=O)(=O)Nc1noc2cccc(Cl)c12 [Example 37, N-(4-chlorobenzo [d]isoxazol-3-yl)-5-isopropyl-2-methoxy-4-methylbenzenesulfonamide]	24.8
O=S(=O)(Nc1noc2cccc(Cl)c12)c1ccccc1OC(F)F [Example 38, N-(4-chlorobenzo [d]isoxazol-3-yl)-2-(difluoromethoxy) benzenesulfonamide]	27.5
O=S(=O)(Nc1noc2cccc(Cl)c12)c1cccc2c1OCCO2 [Example 39, N-(4-chlorobenzo [d]isoxazol-3-yl)-2,3-dihydrobenzo[b][1,4]dioxine-5-sulfonamide]	38.2
COc1ccc(C(C)(C)C)cc1S(=O)(=O)Nc1noc2cccc(Cl)c12 [Example 40, 5-(tert-butyl)-N-(4-chlorobenzo[d]isoxazol-3-yl)-2-methoxy benzenesulfonamide]	2.13
COc1ccc(C(C)C)cc1S(=O)(=O)Nc1noc2cccc(Cl)c12 [Example 41, N-(4-chlorobenzo [d]isoxazol-3-yl)-5-isopropyl-2-methoxybenzene sulfonamide]	4.27
O=S(=O)(Nc1noc2cccc(Cl)c12)c1ccc2c(c1)CCCC2 [Example 42, N-(4-chlorobenzo [d]isoxazol-3-yl)-5,6,7,8-tetrahydronaphthalene-2-sulfonamide]	5.95
O=S(=O)(Nc1noc2cccc(Cl)c12)c1cccc(-c2ccccc2)c1 [Example 43, N-(4-chlorobenzo [d]isoxazol-3-yl)-[1,1-biphenyl]-3-sulfonamide]	5.97
O=S(=O)(Nc1noc2cccc(Cl)c12)c1ccc2c(c1)CCC2 [Example 44, N-(4-chlorobenzo [d]isoxazol-3-yl)-2,3-dihydro-1H-indene-5-sulfonamide]	10.6
COc1ccc(Br)cc1S(=O)(=O)Nc1noc2cccc(Cl)c12 [Example 45]	2.08
COc1ccc(OC)c(S(=O)(=O)Nc2noc3ccccc23)c1 [Example 46, N-(benzo[d]isoxazol-3-yl)-2,5-dimethoxybenzene-sulfonamide]	36.2
COc1ccc(C)cc1S(=O)(=O)Nc1noc2ccccc12 [Example 47, N-(benzo[d]isoxazol-3-yl)-2-methoxy-5-methyl benzene sulfonamide]	12.9
COc1ccc(C(C)(C)C)cc1S(=O)(=O)Nc1noc2ccccc12 [Example 48, N-(benzo[d]isoxazol-3-yl)-5-(tert-butyl)-2-methoxy benzene sulfonamide]	7.41
COc1ccc(C(C)C)cc1S(=O)(=O)Nc1noc2ccccc12 [Example 49, N-(benzo[d]isoxazol-3-yl)-5-isopropyl-2-methoxy benzene sulfonamide]	8.13
COC(=O)c1ccc(OC)c(S(=O)(=O)Nc2noc3ccccc23)c1 [Example 50, methyl 3-(N-(benzo[d]isoxazol-3-yl)sulfamoyl)-4-methoxy benzoate]	123
COc1cc(C)c(Cl)cc1S(=O)(=O)Nc1noc2ccccc12 [Example 51, N-(benzo[d]isoxazol-3-yl)-5-chloro-2-methoxy-4-methylbenzene sulfonamide]	15
CCc1cccc(S(=O)(=O)Nc2noc3ccccc23)c1 [Example 52, N-(benzo[d]isoxazol-3-yl)-3-ethylbenzene sulfonamide]	85.3
CCc1ccc(S(=O)(=O)Nc2noc3ccccc23)cc1 [Example 53, N-(benzo[d]isoxazol-3-yl)-4-ethylbenzene sulfonamide]	90.7
COc1ccc(-n2cccn2)cc1S(=O)(=O)Nc1noc2ccccc12 [Example 54, N-(benzo[d]isoxazol-3-yl)-2-methoxy-5-(1H-pyrazol-1-yl)benzene sulfonamide]	63
COc1ccc(-c2ccno2)cc1S(=O)(=O)Nc1noc2ccccc12 [Example 55, N-(benzo[d]isoxazol-3-yl)-5-(isoxazol-5-yl)-2-methoxybenzene sulfonamide]	103
CCc1ccc(CC)c(S(=O)(=O)Nc2noc3ccccc23)c1 [Example 56, N-(benzo[d]isoxazol-3-yl)-2,5-diethylbenzene sulfonamide]	72.8
CCOc1ccc(CC)cc1S(=O)(=O)Nc1noc2ccccc12 [Example 57, N-(benzo[d]isoxazol-3-yl)-2-ethoxy-5-ethylbenzene sulfonamide]	56.2
COc1ccccc1S(=O)(=O)Nc1noc2ccccc12 [Example 58, N-(benzo[d]isoxazol-3-yl)-2-methoxybenzene sulfonamide]	28.4
Cc1c(Cl)cccc1S(=O)(=O)Nc1noc2ccccc12 [Example 59, N-(benzo[d]isoxazol-3-yl)-3-chloro-2-methylbenzene-sulfonamide]	49.4
O=S(=O)(Nc1noc2ccccc12)c1cccc(Cl)c1Cl [Example 60, N-(benzo[d]isoxazol-3-yl)-2,3-dichlorobenzene-sulfonamide]	116
O=S(=O)(Nc1noc2ccccc12)c1ccc(Cl)c(Cl)c1 [Example 61, N-(benzo[d]isoxazol-3-yl)-3,4-dichlorobenzene-sulfonamide]	51.9
O=S(=O)(Nc1noc2ccccc12)c1ccc(Cl)cc1Cl [Example 62, N-(benzo[d]isoxazol-3-yl)-2,4-dichlorobenzene-sulfonamide]	43.7

These compounds were tested against HBO-KAT7 (Homo sapiens, UniProt O95251) (assay: Acetyltransferase biochemical assay (AlphaScreen), KAT7).
HBO-KAT7, sequence (O95251 with tags, fused parts or gaps): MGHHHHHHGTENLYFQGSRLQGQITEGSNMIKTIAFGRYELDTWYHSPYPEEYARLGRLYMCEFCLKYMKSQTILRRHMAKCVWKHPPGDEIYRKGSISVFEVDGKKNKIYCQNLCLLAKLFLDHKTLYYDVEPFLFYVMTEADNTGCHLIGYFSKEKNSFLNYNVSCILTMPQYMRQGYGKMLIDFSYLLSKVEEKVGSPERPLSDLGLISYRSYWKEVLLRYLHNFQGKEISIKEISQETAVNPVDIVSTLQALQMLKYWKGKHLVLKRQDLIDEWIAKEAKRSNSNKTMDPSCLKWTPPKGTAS

SMILES	IC50 [µM]
O=S(=O)(Nc1noc2cccc(Cl)c12)c1ccc(OC(F)F)cc1 [Example 34, N-(4-chlorobenzo [d]isoxazol-3-yl)-4-(difluoromethoxy) benzenesulfonamide]	31.5
O=S(=O)(Nc1noc2cccc(Cl)c12)c1ccc(S(F)(F)(F)(F)F)cc1 [Example 35, N-(4-chlorobenzo [d]isoxazol-3-yl)-4-(pentafluoro-λ^6-sulfanyl)benzene sulfonamide]	8.75
O=S(=O)(Nc1noc2cccc(Cl)c12)c1cccc(S(F)(F)(F)(F)F)c1 [Example 36, N-(4-chlorobenzo [d]isoxazol-3-yl)-3-(pentafluoro-λ^6-sulfanyl)benzene sulfonamide]	26.3
COc1cc(C)c(C(C)C)cc1S(=O)(=O)Nc1noc2cccc(Cl)c12 [Example 37, N-(4-chlorobenzo [d]isoxazol-3-yl)-5-isopropyl-2-methoxy-4-methylbenzenesulfonamide]	114
O=S(=O)(Nc1noc2cccc(Cl)c12)c1ccccc1OC(F)F [Example 38, N-(4-chlorobenzo [d]isoxazol-3-yl)-2-(difluoromethoxy) benzenesulfonamide]	6.7
O=S(=O)(Nc1noc2cccc(Cl)c12)c1cccc2c1OCCO2 [Example 39, N-(4-chlorobenzo [d]isoxazol-3-yl)-2,3-dihydrobenzo[b][1,4]dioxine-5-sulfonamide]	10.1
COc1ccc(C(C)(C)C)cc1S(=O)(=O)Nc1noc2cccc(Cl)c12 [Example 40, 5-(tert-butyl)-N-(4-chlorobenzo[d]isoxazol-3-yl)-2-methoxy benzenesulfonamide]	19.9
COc1ccc(C(C)C)cc1S(=O)(=O)Nc1noc2cccc(Cl)c12 [Example 41, N-(4-chlorobenzo [d]isoxazol-3-yl)-5-isopropyl-2-methoxybenzene sulfonamide]	11.8
O=S(=O)(Nc1noc2cccc(Cl)c12)c1ccc2c(c1)CCCC2 [Example 42, N-(4-chlorobenzo [d]isoxazol-3-yl)-5,6,7,8-tetrahydronaphthalene-2-sulfonamide]	8.38
O=S(=O)(Nc1noc2cccc(Cl)c12)c1cccc(-c2ccccc2)c1 [Example 43, N-(4-chlorobenzo [d]isoxazol-3-yl)-[1,1-biphenyl]-3-sulfonamide]	12.9
O=S(=O)(Nc1noc2cccc(Cl)c12)c1ccc2c(c1)CCC2 [Example 44, N-(4-chlorobenzo [d]isoxazol-3-yl)-2,3-dihydro-1H-indene-5-sulfonamide]	10.8
COc1ccc(Br)cc1S(=O)(=O)Nc1noc2cccc(Cl)c12 [Example 45]	6.83
COc1ccc(OC)c(S(=O)(=O)Nc2noc3ccccc23)c1 [Example 46, N-(benzo[d]isoxazol-3-yl)-2,5-dimethoxybenzene-sulfonamide]	74.4
COc1ccc(C)cc1S(=O)(=O)Nc1noc2ccccc12 [Example 47, N-(benzo[d]isoxazol-3-yl)-2-methoxy-5-methyl benzene sulfonamide]	29.4
COc1ccc(C(C)(C)C)cc1S(=O)(=O)Nc1noc2ccccc12 [Example 48, N-(benzo[d]isoxazol-3-yl)-5-(tert-butyl)-2-methoxy benzene sulfonamide]	54.8
COc1ccc(C(C)C)cc1S(=O)(=O)Nc1noc2ccccc12 [Example 49, N-(benzo[d]isoxazol-3-yl)-5-isopropyl-2-methoxy benzene sulfonamide]	77.8
COC(=O)c1ccc(OC)c(S(=O)(=O)Nc2noc3ccccc23)c1 [Example 50, methyl 3-(N-(benzo[d]isoxazol-3-yl)sulfamoyl)-4-methoxy benzoate]	> 125
COc1cc(C)c(Cl)cc1S(=O)(=O)Nc1noc2ccccc12 [Example 51, N-(benzo[d]isoxazol-3-yl)-5-chloro-2-methoxy-4-methylbenzene sulfonamide]	28.3
CCc1cccc(S(=O)(=O)Nc2noc3ccccc23)c1 [Example 52, N-(benzo[d]isoxazol-3-yl)-3-ethylbenzene sulfonamide]	> 125
CCc1ccc(S(=O)(=O)Nc2noc3ccccc23)cc1 [Example 53, N-(benzo[d]isoxazol-3-yl)-4-ethylbenzene sulfonamide]	> 125
COc1ccc(-n2cccn2)cc1S(=O)(=O)Nc1noc2ccccc12 [Example 54, N-(benzo[d]isoxazol-3-yl)-2-methoxy-5-(1H-pyrazol-1-yl)benzene sulfonamide]	> 125
COc1ccc(-c2ccno2)cc1S(=O)(=O)Nc1noc2ccccc12 [Example 55, N-(benzo[d]isoxazol-3-yl)-5-(isoxazol-5-yl)-2-methoxybenzene sulfonamide]	> 125
CCc1ccc(CC)c(S(=O)(=O)Nc2noc3ccccc23)c1 [Example 56, N-(benzo[d]isoxazol-3-yl)-2,5-diethylbenzene sulfonamide]	> 125
CCOc1ccc(CC)cc1S(=O)(=O)Nc1noc2ccccc12 [Example 57, N-(benzo[d]isoxazol-3-yl)-2-ethoxy-5-ethylbenzene sulfonamide]	> 125
COc1ccccc1S(=O)(=O)Nc1noc2ccccc12 [Example 58, N-(benzo[d]isoxazol-3-yl)-2-methoxybenzene sulfonamide]	16.6
Cc1c(Cl)cccc1S(=O)(=O)Nc1noc2ccccc12 [Example 59, N-(benzo[d]isoxazol-3-yl)-3-chloro-2-methylbenzene-sulfonamide]	> 125
O=S(=O)(Nc1noc2ccccc12)c1cccc(Cl)c1Cl [Example 60, N-(benzo[d]isoxazol-3-yl)-2,3-dichlorobenzene-sulfonamide]	> 125
O=S(=O)(Nc1noc2ccccc12)c1ccc(Cl)c(Cl)c1 [Example 61, N-(benzo[d]isoxazol-3-yl)-3,4-dichlorobenzene-sulfonamide]	> 125
O=S(=O)(Nc1noc2ccccc12)c1ccc(Cl)cc1Cl [Example 62, N-(benzo[d]isoxazol-3-yl)-2,4-dichlorobenzene-sulfonamide]	70.6

What follows are compounds tested against TIP60-KAT5 (Homo sapiens, UniProt Q92993) (assay: Acetyltransferase biochemical assay (AlphaScreen), KAT5).
TIP60-KAT5, sequence (Q92993 with tags, fused parts or gaps isoform Q92993-2): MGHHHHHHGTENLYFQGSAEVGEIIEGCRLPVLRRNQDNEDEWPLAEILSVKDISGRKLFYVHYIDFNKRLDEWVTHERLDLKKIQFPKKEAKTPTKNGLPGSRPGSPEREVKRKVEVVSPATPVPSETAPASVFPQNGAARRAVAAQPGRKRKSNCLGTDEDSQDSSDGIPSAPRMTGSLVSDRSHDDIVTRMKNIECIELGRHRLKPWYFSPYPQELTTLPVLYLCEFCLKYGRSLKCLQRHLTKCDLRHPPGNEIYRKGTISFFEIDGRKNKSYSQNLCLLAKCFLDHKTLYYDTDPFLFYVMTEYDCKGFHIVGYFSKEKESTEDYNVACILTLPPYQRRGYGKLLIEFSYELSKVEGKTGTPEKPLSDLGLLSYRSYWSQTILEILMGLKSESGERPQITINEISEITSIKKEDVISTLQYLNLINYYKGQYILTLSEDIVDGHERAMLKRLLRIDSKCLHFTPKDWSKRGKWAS

SMILES	IC50 [µM]
O=S(=O)(Nc1noc2cccc(Cl)c12)c1ccc(OC(F)F)cc1 [Example 34, N-(4-chlorobenzo [d]isoxazol-3-yl)-4-(difluoromethoxy) benzenesulfonamide]	> 125
O=S(=O)(Nc1noc2cccc(Cl)c12)c1ccc(S(F)(F)(F)(F)F)cc1 [Example 35, N-(4-chlorobenzo [d]isoxazol-3-yl)-4-(pentafluoro-λ^6-sulfanyl)benzene sulfonamide]	33.8
O=S(=O)(Nc1noc2cccc(Cl)c12)c1cccc(S(F)(F)(F)(F)F)c1 [Example 36, N-(4-chlorobenzo [d]isoxazol-3-yl)-3-(pentafluoro-λ^6-sulfanyl)benzene sulfonamide]	39
COc1cc(C)c(C(C)C)cc1S(=O)(=O)Nc1noc2cccc(Cl)c12 [Example 37, N-(4-chlorobenzo [d]isoxazol-3-yl)-5-isopropyl-2-methoxy-4-methylbenzenesulfonamide]	> 125
O=S(=O)(Nc1noc2cccc(Cl)c12)c1ccccc1OC(F)F [Example 38, N-(4-chlorobenzo [d]isoxazol-3-yl)-2-(difluoromethoxy) benzenesulfonamide]	80.1
O=S(=O)(Nc1noc2cccc(Cl)c12)c1cccc2c1OCCO2 [Example 39, N-(4-chlorobenzo [d]isoxazol-3-yl)-2,3-dihydrobenzo[b][1,4]dioxine-5-sulfonamide]	> 125
COc1ccc(C(C)(C)C)cc1S(=O)(=O)Nc1noc2cccc(Cl)c12 [Example 40, 5-(tert-butyl)-N-(4-chlorobenzo[d]isoxazol-3-yl)-2-methoxy benzenesulfonamide]	121
COc1ccc(C(C)C)cc1S(=O)(=O)Nc1noc2cccc(Cl)c12 [Example 41, N-(4-chlorobenzo [d]isoxazol-3-yl)-5-isopropyl-2-methoxybenzene sulfonamide]	65.1
O=S(=O)(Nc1noc2cccc(Cl)c12)c1ccc2c(c1)CCCC2 [Example 42, N-(4-chlorobenzo [d]isoxazol-3-yl)-5,6,7,8-tetrahydronaphthalene-2-sulfonamide]	11.6
O=S(=O)(Nc1noc2cccc(Cl)c12)c1cccc(-c2ccccc2)c1 [Example 43, N-(4-chlorobenzo [d]isoxazol-3-yl)-[1,1-biphenyl]-3-sulfonamide]	23
O=S(=O)(Nc1noc2cccc(Cl)c12)c1ccc2c(c1)CCC2 [Example 44, N-(4-chlorobenzo [d]isoxazol-3-yl)-2,3-dihydro-1H-indene-5-sulfonamide]	60.2
COc1ccc(Br)cc1S(=O)(=O)Nc1noc2cccc(Cl)c12 [Example 45]	34.3
COc1ccc(OC)c(S(=O)(=O)Nc2noc3ccccc23)c1 [Example 46, N-(benzo[d]isoxazol-3-yl)-2,5-dimethoxybenzene-sulfonamide]	> 125
COc1ccc(C)cc1S(=O)(=O)Nc1noc2ccccc12 [Example 47, N-(benzo[d]isoxazol-3-yl)-2-methoxy-5-methyl benzene sulfonamide]	123
COc1ccc(C(C)(C)C)cc1S(=O)(=O)Nc1noc2ccccc12 [Example 48, N-(benzo[d]isoxazol-3-yl)-5-(tert-butyl)-2-methoxy benzene sulfonamide]	92.9
COc1ccc(C(C)C)cc1S(=O)(=O)Nc1noc2ccccc12 [Example 49, N-(benzo[d]isoxazol-3-yl)-5-isopropyl-2-methoxy benzene sulfonamide]	74.6
COC(=O)c1ccc(OC)c(S(=O)(=O)Nc2noc3ccccc23)c1 [Example 50, methyl 3-(N-(benzo[d]isoxazol-3-yl)sulfamoyl)-4-methoxy benzoate]	> 125
COc1cc(C)c(Cl)cc1S(=O)(=O)Nc1noc2ccccc12 [Example 51, N-(benzo[d]isoxazol-3-yl)-5-chloro-2-methoxy-4-methylbenzene sulfonamide]	87.7
CCc1cccc(S(=O)(=O)Nc2noc3ccccc23)c1 [Example 52, N-(benzo[d]isoxazol-3-yl)-3-ethylbenzene sulfonamide]	> 125
CCc1ccc(S(=O)(=O)Nc2noc3ccccc23)cc1 [Example 53, N-(benzo[d]isoxazol-3-yl)-4-ethylbenzene sulfonamide]	> 125
COc1ccc(-n2cccn2)cc1S(=O)(=O)Nc1noc2ccccc12 [Example 54, N-(benzo[d]isoxazol-3-yl)-2-methoxy-5-(1H-pyrazol-1-yl)benzene sulfonamide]	> 125
COc1ccc(-c2ccno2)cc1S(=O)(=O)Nc1noc2ccccc12 [Example 55, N-(benzo[d]isoxazol-3-yl)-5-(isoxazol-5-yl)-2-methoxybenzene sulfonamide]	> 125
CCc1ccc(CC)c(S(=O)(=O)Nc2noc3ccccc23)c1 [Example 56, N-(benzo[d]isoxazol-3-yl)-2,5-diethylbenzene sulfonamide]	> 125
CCOc1ccc(CC)cc1S(=O)(=O)Nc1noc2ccccc12 [Example 57, N-(benzo[d]isoxazol-3-yl)-2-ethoxy-5-ethylbenzene sulfonamide]	> 125
COc1ccccc1S(=O)(=O)Nc1noc2ccccc12 [Example 58, N-(benzo[d]isoxazol-3-yl)-2-methoxybenzene sulfonamide]	> 125
Cc1c(Cl)cccc1S(=O)(=O)Nc1noc2ccccc12 [Example 59, N-(benzo[d]isoxazol-3-yl)-3-chloro-2-methylbenzene-sulfonamide]	> 125
O=S(=O)(Nc1noc2ccccc12)c1cccc(Cl)c1Cl [Example 60, N-(benzo[d]isoxazol-3-yl)-2,3-dichlorobenzene-sulfonamide]	> 125
O=S(=O)(Nc1noc2ccccc12)c1ccc(Cl)c(Cl)c1 [Example 61, N-(benzo[d]isoxazol-3-yl)-3,4-dichlorobenzene-sulfonamide]	85.4
O=S(=O)(Nc1noc2ccccc12)c1ccc(Cl)cc1Cl [Example 62, N-(benzo[d]isoxazol-3-yl)-2,4-dichlorobenzene-sulfonamide]	> 125

Source: patent US12365655B2, “Compounds” (CTXT PTY LTD, priority 2018, dated 2025)
